Experimental data published in ChEMBL document CHEMBL1159050, “2-Arylbenzoxazoles as CETP inhibitors: substitution and modification of the alpha-alkoxyamide moiety” (Bioorg Med Chem Lett, 2010).

tested on: not listed separately; experiment: Half life in mouse; assay type: ADME, organism-based; details: in vivo

**Q.** For CC(OCCNc1ccc(-c2nc3cc(C#N)ccc3o2)cc1)(C(F)(F)F)C(F)(F)F, which half-life is on record?
**A.** 7.3 h

target: T1, Cholesteryl ester transfer protein (Homo sapiens, UniProt P11597); experiment: Inhibition of CETP assessed as cholesteryl ester transfer activity; details: not given
T1 sequence (P11597 whole entry): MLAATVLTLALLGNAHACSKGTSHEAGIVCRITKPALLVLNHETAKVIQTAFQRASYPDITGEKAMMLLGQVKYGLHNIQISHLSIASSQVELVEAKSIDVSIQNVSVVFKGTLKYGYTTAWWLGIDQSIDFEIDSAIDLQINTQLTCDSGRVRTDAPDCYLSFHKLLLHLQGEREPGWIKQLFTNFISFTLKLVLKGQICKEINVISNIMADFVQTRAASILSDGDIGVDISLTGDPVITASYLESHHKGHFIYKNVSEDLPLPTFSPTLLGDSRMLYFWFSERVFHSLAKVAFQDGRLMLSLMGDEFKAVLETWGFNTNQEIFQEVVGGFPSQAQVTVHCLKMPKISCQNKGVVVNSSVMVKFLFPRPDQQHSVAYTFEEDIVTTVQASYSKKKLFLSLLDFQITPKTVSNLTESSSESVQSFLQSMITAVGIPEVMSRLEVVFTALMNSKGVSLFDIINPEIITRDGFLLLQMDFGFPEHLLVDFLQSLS

**Q.** With Cc1ccccc1OCC(=O)Nc1ccc(-c2nc3cc(C#N)ccc3o2)cc1 as the compound, how does the IC50 read?
**A.** 130 nM

**Q.** Which IC50 does the source give for Cc1ccccc1OCC(=O)Nc1ccc(-c2nc3cc(Cl)ccc3o2)cc1 here?
**A.** 1110 nM

**Q.** For COc1ccc(OCC(=O)Nc2ccc(-c3nc4cc(Cl)ccc4o3)cc2)cc1, which IC50 is on record?
**A.** 4570 nM

**Q.** Which IC50 does the source give for O=C(Nc1ccc(-c2nc3cc(Cl)ccc3o2)cc1)OCc1ccccc1 here?
**A.** > 30000 nM

**Q.** Which IC50 does the source give for N#Cc1ccc2oc(-c3ccc(NC(=O)COC(C(F)(F)F)C(F)(F)F)cc3)nc2c1 here?
**A.** 94 nM

**Q.** With CC(C)(OCC(=O)Nc1ccc(-c2nc3cc(C#N)ccc3o2)cc1)C(F)(F)F as the compound, how does the IC50 read?
**A.** 51 nM

**Q.** Which IC50 does the source give for N#Cc1ccc2oc(-c3ccc(NC(=O)COC(C(F)(F)F)(C(F)(F)F)C(F)(F)F)cc3)nc2c1 here?
**A.** 151 nM

**Q.** With O=C(COc1ccccc1)Nc1ccc(-c2nc3cc(Cl)ccc3o2)cc1 as the compound, how does the IC50 read?
**A.** 4230 nM

**Q.** With CC(C)(C)OCC(=O)Nc1ccc(-c2nc3cc(C#N)ccc3o2)cc1 as the compound, how does the IC50 read?
**A.** 132 nM

**Q.** Which IC50 does the source give for COc1cccc(OCC(=O)Nc2ccc(-c3nc4cc(Cl)ccc4o3)cc2)c1 here?
**A.** 12900 nM

**Q.** Which IC50 does the source give for O=C(COc1cccc([N+](=O)[O-])c1)Nc1ccc(-c2nc3cc(Cl)ccc3o2)cc1 here?
**A.** 26500 nM

**Q.** For Cc1ccc(OCC(=O)Nc2ccc(-c3nc4cc(Cl)ccc4o3)cc2)cc1, which IC50 is on record?
**A.** > 30000 nM

**Q.** For O=C(COc1ccc([N+](=O)[O-])cc1)Nc1ccc(-c2nc3cc(Cl)ccc3o2)cc1, which IC50 is on record?
**A.** 2210 nM

**Q.** For O=C(CNc1ccccc1)Nc1ccc(-c2nc3cc(Cl)ccc3o2)cc1, which IC50 is on record?
**A.** 8130 nM

**Q.** For CC(OCC(=O)Nc1ccc(-c2nc3cc(C#N)ccc3o2)cc1)(C(F)(F)F)C(F)(F)F, which IC50 is on record?
**A.** 44 nM

**Q.** Which IC50 does the source give for CCc1ccccc1OCC(=O)Nc1ccc(-c2nc3cc(Cl)ccc3o2)cc1 here?
**A.** 2590 nM

**Q.** For Cc1ccccc1OCC(=O)N(C)c1ccc(-c2nc3cc(Cl)ccc3o2)cc1, which IC50 is on record?
**A.** > 30000 nM

**Q.** For CC(Oc1ccccc1)C(=O)Nc1ccc(-c2nc3cc(Cl)ccc3o2)cc1 (stereo not drawn), which IC50 is on record?
**A.** > 30000 nM

**Q.** Which IC50 does the source give for N#Cc1cccc(OCC(=O)Nc2ccc(-c3nc4cc(Cl)ccc4o3)cc2)c1 here?
**A.** > 30000 nM

**Q.** For CCCc1ccccc1OCC(=O)Nc1ccc(-c2nc3cc(Cl)ccc3o2)cc1, which IC50 is on record?
**A.** 2700 nM

**Q.** With O=C(COc1ccccc1C(F)(F)F)Nc1ccc(-c2nc3cc(Cl)ccc3o2)cc1 as the compound, how does the IC50 read?
**A.** 6390 nM

**Q.** For O=C(COc1ccccc1Cl)Nc1ccc(-c2nc3cc(Cl)ccc3o2)cc1, which IC50 is on record?
**A.** 2150 nM

**Q.** For O=C(COc1cccc(F)c1)Nc1ccc(-c2nc3cc(Cl)ccc3o2)cc1, which IC50 is on record?
**A.** 1990 nM

**Q.** For N#Cc1ccc(OCC(=O)Nc2ccc(-c3nc4cc(Cl)ccc4o3)cc2)cc1, which IC50 is on record?
**A.** > 30000 nM

**Q.** Which IC50 does the source give for O=C(COc1ccc(F)cc1)Nc1ccc(-c2nc3cc(Cl)ccc3o2)cc1 here?
**A.** 1770 nM

**Q.** For O=C(CSc1ccccc1)Nc1ccc(-c2nc3cc(Cl)ccc3o2)cc1, which IC50 is on record?
**A.** > 30000 nM

**Q.** Which IC50 does the source give for O=C(COc1ccc(Cl)cc1)Nc1ccc(-c2nc3cc(Cl)ccc3o2)cc1 here?
**A.** 6810 nM

**Q.** With O=C(COc1cccc(Cl)c1)Nc1ccc(-c2nc3cc(Cl)ccc3o2)cc1 as the compound, how does the IC50 read?
**A.** 1250 nM

**Q.** Which IC50 does the source give for O=C(NCc1ccccc1)Nc1ccc(-c2nc3cc(Cl)ccc3o2)cc1 here?
**A.** > 30000 nM

**Q.** Which IC50 does the source give for N#Cc1ccc2oc(-c3ccc(NC(=O)COCc4ccccc4C(F)(F)F)cc3)nc2c1 here?
**A.** 505 nM

**Q.** With CCOCC(=O)Nc1ccc(-c2nc3cc(C#N)ccc3o2)cc1 as the compound, how does the IC50 read?
**A.** 1380 nM

**Q.** With CC(C)OCC(=O)Nc1ccc(-c2nc3cc(C#N)ccc3o2)cc1 as the compound, how does the IC50 read?
**A.** 613 nM

**Q.** For O=C(COc1cccc(C(F)(F)F)c1)Nc1ccc(-c2nc3cc(Cl)ccc3o2)cc1, which IC50 is on record?
**A.** 1770 nM

**Q.** With O=C(COCc1ccccc1)Nc1ccc(-c2nc3cc(Cl)ccc3o2)cc1 as the compound, how does the IC50 read?
**A.** 6540 nM

**Q.** For O=C(CNCc1ccccc1)Nc1ccc(-c2nc3cc(Cl)ccc3o2)cc1, which IC50 is on record?
**A.** 18100 nM

**Q.** With N#Cc1ccccc1OCC(=O)Nc1ccc(-c2nc3cc(Cl)ccc3o2)cc1 as the compound, how does the IC50 read?
**A.** > 30000 nM

**Q.** With O=C(COc1ccccc1F)Nc1ccc(-c2nc3cc(Cl)ccc3o2)cc1 as the compound, how does the IC50 read?
**A.** > 30000 nM

**Q.** Which IC50 does the source give for COc1ccccc1OCC(=O)Nc1ccc(-c2nc3cc(Cl)ccc3o2)cc1 here?
**A.** > 30000 nM

**Q.** For c1ccc(OCCNc2ccc(-c3nc4ccccc4o3)cc2)cc1, which IC50 is on record?
**A.** 75900 nM

**Q.** For CC(C)OCCNc1ccc(-c2nc3cc(C#N)ccc3o2)cc1, which IC50 is on record?
**A.** 890 nM

**Q.** With CC(OCCNc1ccc(-c2nc3cc(C#N)ccc3o2)cc1)(C(F)(F)F)C(F)(F)F as the compound, how does the IC50 read?
**A.** 151 nM

**Q.** With O=C(COc1ccccc1[N+](=O)[O-])Nc1ccc(-c2nc3cc(Cl)ccc3o2)cc1 as the compound, how does the IC50 read?
**A.** 4400 nM

**Q.** For O=C(COc1ccc(C(F)(F)F)cc1)Nc1ccc(-c2nc3cc(Cl)ccc3o2)cc1, which IC50 is on record?
**A.** 810 nM

**Q.** For Cc1ccccc1CNC(=O)c1ccc(-c2nc3cc(Cl)ccc3o2)cc1, which IC50 is on record?
**A.** > 30000 nM

**Q.** For Cc1ccccc1COCC(=O)Nc1ccc(-c2nc3cc(C#N)ccc3o2)cc1, which IC50 is on record?
**A.** 1180 nM

**Q.** Which IC50 does the source give for O=S(=O)(Cc1ccccc1)Nc1ccc(-c2nc3cc(Cl)ccc3o2)cc1 here?
**A.** > 30000 nM

**Q.** For Cc1cccc(OCC(=O)Nc2ccc(-c3nc4cc(Cl)ccc4o3)cc2)c1, which IC50 is on record?
**A.** 19300 nM

**Q.** For O=C(CCc1ccccc1)Nc1ccc(-c2nc3cc(Cl)ccc3o2)cc1, which IC50 is on record?
**A.** > 30000 nM

tested on: not listed separately; experiment: Clearance in mouse; assay type: ADME, organism-based; details: in vivo

**Q.** With CC(OCCNc1ccc(-c2nc3cc(C#N)ccc3o2)cc1)(C(F)(F)F)C(F)(F)F as the compound, how does the clearance read?
**A.** 31 mL/min/kg

tested on: not listed separately; experiment: Oral bioavailability in mouse; assay type: ADME, organism-based; details: in vivo

**Q.** Which bioavailability does the source give for N#Cc1ccc2oc(-c3ccc(NC(=O)COC(C(F)(F)F)C(F)(F)F)cc3)nc2c1 here?
**A.** 4%

**Q.** With CC(C)OCCNc1ccc(-c2nc3cc(C#N)ccc3o2)cc1 as the compound, how does the bioavailability read?
**A.** 30%

**Q.** For CC(OCCNc1ccc(-c2nc3cc(C#N)ccc3o2)cc1)(C(F)(F)F)C(F)(F)F, which bioavailability is on record?
**A.** 20%
